Data from the supplement of paper PMC11061612.

Assays:
Assay in all cases: Bliss excess, mean over the matrix (fraction); higher = more synergy
[1] = tested on: A3-KAW (B-Cell Non-Hodgkin's Lymphoma)
How it was run: (§1)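 Cell lines in DMEM/F12 or RPMI with 10% FBS were plated in 1536-well plates, held 24 hours at 37°C, 5% CO2, then given two-drug dose matrices for 72 hours (DMSO typically 0.2%). Viability was read by CellTiter-Glo 2.0 luminescence and scaled as inhibition from 0 (vehicle wells) to 1 (blank wells). Combination Emax is the second-highest inhibition in the matrix; Bliss excess is observed combination effect minus expected EA + EB − EA·EB, EA and EB being single-agent effects.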

[2] = tested on: SK-MG-1 (Low Grade Glioma)
How it was run: as §1

[3] = tested on: NCI-H2141 (Small Cell Lung Carcinoma)
How it was run: as §1

[4] = tested on: MDST8 (Colorectal Carcinoma)
How it was run: as §1

FU97 (Gastric Carcinoma) = tested on: FU97 (Gastric Carcinoma)
How it was run: as §1

[5] = tested on: VCaP (Prostate Carcinoma)
How it was run: as §1

NY (Osteosarcoma) = tested on: NY (Osteosarcoma)
How it was run: as §1

CAS-1 (Glioblastoma) = tested on: CAS-1 (Glioblastoma)
How it was run: as §1

[6] = tested on: CCK-81 (Colorectal Carcinoma)
How it was run: as §1

[7] = tested on: NCI-H1581 (Non-Small Cell Lung Carcinoma)
How it was run: as §1

[8] = tested on: TT2609-C02 (Thyroid Gland Carcinoma)
How it was run: as §1

[9] = tested on: ECC10 (Gastric Carcinoma)
How it was run: as §1

8-MG-BA (Glioblastoma) = tested on: 8-MG-BA (Glioblastoma)
How it was run: as §1

U-2-OS (Osteosarcoma) = tested on: U-2-OS (Osteosarcoma)
How it was run: as §1

[10] = tested on: A549 (Lung Adenocarcinoma)
How it was run: as §1

NCI-H2591 (Mesothelioma) = tested on: NCI-H2591 (Mesothelioma)
How it was run: as §1

Hs-445 (Non-Cancerous) = tested on: Hs-445 (Non-Cancerous)
How it was run: as §1

[11] = tested on: JSC-1 (B-Cell Non-Hodgkin's Lymphoma)
How it was run: as §1

[12] = tested on: HCC1954 (Breast Carcinoma)
How it was run: as §1

[13] = tested on: TT (Thyroid Gland Carcinoma)
How it was run: as §1

## CC1(C)CCC(CN2CCN(c3ccc(C(=O)NS(=O)(=O)c4ccc(NCC5CCOCC5)c([N+](=O)[O-])c4)c(Oc4cnc5[nH]ccc5c4)c3)CC2)=C(c2ccc(Cl)cc2)C1 [Venetoclax] + Cn1cnc2c(F)c(Nc3ccc(Br)cc3Cl)c(C(=O)NOCCO)cc21 [Selumetinib] (first compound max 1 µM, 7x7, partner max 3 µM)
[1]
  Bliss excess: 0.0127
[2]
  Bliss excess: -0.0062
[3]
  Bliss excess: -0.0303
[4]
  Bliss excess: -0.0579
FU97 (Gastric Carcinoma)
  Bliss excess: -0.0378
[5]
  Bliss excess: -0.0082
NY (Osteosarcoma)
  Bliss excess: -0.0331
CAS-1 (Glioblastoma)
  Bliss excess: -0.035
[6]
  Bliss excess: 0.0338
[7]
  Bliss excess: -0.0158
[8]
  Bliss excess: -0.0518
[9]
  Bliss excess: 0.0364
8-MG-BA (Glioblastoma)
  Bliss excess: -0.0216
U-2-OS (Osteosarcoma)
  Bliss excess: -0.0309
[10]
  Bliss excess: -0.0401
NCI-H2591 (Mesothelioma)
  Bliss excess: -0.0169
Hs-445 (Non-Cancerous)
  Bliss excess: 0.0401
[11]
  Bliss excess: -0.0184
[12]
  Bliss excess: 0.0025
[13]
  Bliss excess: -0.0799
